ChEMBL document CHEMBL1149662, “Design and synthesis of a library of tertiary amides: evaluation as mimetics of the melanocortins' active core” (Bioorg Med Chem, 2007)

Columns and labels:
[1] = target: T1, Melanocyte-stimulating hormone receptor (Mus musculus, UniProt Q01727); assay: Displacement of [125I]NDP-MSH from MC1 receptor in mouse B16 cells; format: cell-based
Melanocortin receptor 3 [2] = target: T2, Melanocortin receptor 3 (Homo sapiens, UniProt P41968); assay: Displacement of [125I]NDP-MSH from human recombinant MC3 receptor expressed in Sf9 cells
T2 sequence (P41968 whole entry): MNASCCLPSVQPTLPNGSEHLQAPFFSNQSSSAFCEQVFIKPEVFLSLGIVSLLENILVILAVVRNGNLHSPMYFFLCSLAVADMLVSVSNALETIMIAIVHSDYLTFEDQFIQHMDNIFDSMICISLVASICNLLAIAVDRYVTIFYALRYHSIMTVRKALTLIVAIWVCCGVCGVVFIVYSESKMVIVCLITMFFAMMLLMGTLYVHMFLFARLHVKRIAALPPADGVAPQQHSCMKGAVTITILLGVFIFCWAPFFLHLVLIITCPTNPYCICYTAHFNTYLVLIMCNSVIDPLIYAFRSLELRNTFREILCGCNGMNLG

Melanocortin receptor 4 [3] = target: T3, Melanocortin receptor 4 (Homo sapiens, UniProt P32245); assay: Displacement of [125I]NDP-MSH from human recombinant MC4 receptor expressed in Sf9 cells
T3 sequence (P32245 whole entry): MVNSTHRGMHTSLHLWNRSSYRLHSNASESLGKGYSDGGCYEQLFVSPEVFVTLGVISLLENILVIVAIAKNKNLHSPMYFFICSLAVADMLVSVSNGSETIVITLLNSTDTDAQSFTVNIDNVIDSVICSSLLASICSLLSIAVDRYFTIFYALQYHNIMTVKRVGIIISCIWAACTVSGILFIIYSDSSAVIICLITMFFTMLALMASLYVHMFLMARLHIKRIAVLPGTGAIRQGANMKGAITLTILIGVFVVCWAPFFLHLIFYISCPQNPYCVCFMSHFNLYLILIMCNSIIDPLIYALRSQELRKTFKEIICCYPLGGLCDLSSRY

Melanocortin receptor 5 [4] = target: T4, Melanocortin receptor 5 (Homo sapiens, UniProt P33032); assay: Displacement of [125I]NDP-MSH from human recombinant MC5 receptor expressed in Sf9 cells
T4 sequence (P33032 whole entry): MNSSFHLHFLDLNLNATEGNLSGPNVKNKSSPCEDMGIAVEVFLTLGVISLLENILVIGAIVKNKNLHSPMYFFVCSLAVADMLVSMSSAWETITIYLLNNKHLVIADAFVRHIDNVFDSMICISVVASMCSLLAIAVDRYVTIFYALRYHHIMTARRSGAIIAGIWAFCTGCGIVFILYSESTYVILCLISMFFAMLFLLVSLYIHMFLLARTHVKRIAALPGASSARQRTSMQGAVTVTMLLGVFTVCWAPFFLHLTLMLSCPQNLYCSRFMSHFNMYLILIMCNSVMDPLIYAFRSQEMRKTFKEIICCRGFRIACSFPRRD

[5] = Selectivity for mouse MC1 receptor over human MC3 receptor
[6] = Selectivity for mouse MC1 receptor over human MC4 receptor
[7] = Selectivity for mouse MC1 receptor over human MC5 receptor
[8] = target: T1, Melanocyte-stimulating hormone receptor; assay: Displacement of [125I]NDP-MSH from MC1 receptor in mouse B16 cells up to 1 mM; format: cell-based
Melanocortin receptor 3 [9] = target: T2, Melanocortin receptor 3; assay: Displacement of [125I]NDP-MSH from human recombinant MC3 receptor expressed in Sf9 cells up to 1 mM
Melanocortin receptor 4 [10] = target: T3, Melanocortin receptor 4; assay: Displacement of [125I]NDP-MSH from human recombinant MC4 receptor expressed in Sf9 cells up to 1 mM
Melanocortin receptor 5 [11] = target: T4, Melanocortin receptor 5; assay: Displacement of [125I]NDP-MSH from human recombinant MC5 receptor expressed in Sf9 cells up to 1 mM

T1 sequence (Q01727 whole entry): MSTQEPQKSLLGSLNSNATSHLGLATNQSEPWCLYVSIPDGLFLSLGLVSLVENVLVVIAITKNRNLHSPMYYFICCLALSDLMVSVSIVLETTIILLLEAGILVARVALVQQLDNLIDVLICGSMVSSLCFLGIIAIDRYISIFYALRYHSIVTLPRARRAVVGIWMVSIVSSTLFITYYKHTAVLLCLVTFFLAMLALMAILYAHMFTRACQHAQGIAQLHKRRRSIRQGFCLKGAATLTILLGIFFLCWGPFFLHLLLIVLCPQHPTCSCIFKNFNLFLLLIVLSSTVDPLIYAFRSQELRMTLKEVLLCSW

Compound | Ki [1] [µM] | Ki (Melanocortin receptor 3 [2]) [µM] | Ki (Melanocortin receptor 4 [3]) [µM] | Ki (Melanocortin receptor 5 [4]) [µM] | Ratio [5] | Ratio [6] | Ratio [7] | Ki [8] | Ki (Melanocortin receptor 3 [9]) | Ki (Melanocortin receptor 4 [10]) | Ki (Melanocortin receptor 5 [11])
NCCN(C(=O)Cc1ccc2ccccc2c1)C1CCc2ccccc2C1 (stereo not given) | 1.6 | 29 | 27 | 25 | 10 | 10 | 10 | – | – | – | –
NCCCCCN(Cc1ccccc1)C(=O)[C@H](N)Cc1ccccn1 | – | – | – | – | – | – | – | Not Active | Not Active | Not Active | Not Active
NCCCN(C/C=C/c1ccccc1)C(=O)Cc1c[nH]c2ccccc12 | 6.4 | 21 | 26 | – | – | – | – | – | – | – | Not Active
